Test results taken from US10092537B2, “Use for PAI-1 inhibitor” (RENASCIENCE CO., LTD., priority 2013, dated 2018).

Columns and labels:
[1] = test system: CML cells (32Dp210-GFP cells); assay: Chronic myelogenous leukemia model mice, imatinib and compound a (Experimental Example 11); assay type: in vivo, C3H/HeJ mice; settings: imatinib 150 mg/kg/day alone
Procedure: p210(BCR-ABL) gene was inserted into a MIGR1 vector, and GFP cDNA was further incorporated as a reporter gene downstream of the gene (hereinafter, the vector is referred to as “p210-GFP”). p210-GFP was infected with 32D cells (C3H/HeJ mice cell line), and chronic myelogenous leukemia (hereinafter, referred to as “CML”) cells were prepared. 2.5×10^5 of the thus-obtained CML cells (32Dp210(BCR-ABL)-GFP cells, hereinafter, referred to as “32Dp210-GFP cells”) were intravenously administered into the retro-orbital plexus of C3H/HeJ mice. 7 to 10 days after the transplantation, the abundance ratio of GFP cells in the peripheral blood was analyzed, and mice with more than 3% of abundance ratio were used as chronic myelogenous leukemia model mice in the following experiments.
15 chronic myelogenous leukemia model mice prepared by using the procedure described above were divided into the following 3 groups (each group: n=15), and a test drug was administered to the mice in accordance with the protocol shown in FIG. 15A.
(§1) Group 1: placebo group (physiological saline was administered via gavage)
(§2) Group 2: imatinib group (imatinib [150 mg/kg/day] was administered via gavage)
Group 3: imatinib+compound a group (imatinib [150 mg/kg/day] and compound a [100 mg/kg/day] were administered via gavage)
(§3) 10 days (day 10) after the day on which CML cells were intravenously inoculated (day 0), administration of test drugs to the groups was started. The placebo group and the imatinib group were administered the respective test drugs once a day from day 10 to day 16 (7 doses in total). The imatinib+compound a group was administered imatinib once a day from day 10 to day 16 (7 doses in total), and also administered compound a once a day from day 10 to day 14 (5 doses in total).
As described above, 32Dp210-GFP includes GFP as a reporter gene, and thus, the CML cells having 32Dp210-GFP inserted (32Dp210-GFP cells) are GFP-positive. Therefore, using FACS (FACS (BD Biosciences: FACSCalibur), the frequency of CML cells (32Dp210-GFP cells) in mononucleic cells of the bone marrow and spleen was measured and compared between the imatinib group and the imatinib+compound a group.

[2] = test system: CML cells (32Dp210-GFP cells); assay: Chronic myelogenous leukemia model mice, imatinib and compound c (Experimental Example 12); assay type: in vivo; settings: imatinib 150 mg/kg/day alone
Procedure: Chronic myelogenous leukemia model mice prepared in the same manner as in Experimental Example 11 were divided into the following 3 groups (each group: n=10), and the groups were administered respective test drugs in accordance with the protocol shown in FIG. 15A.
as §1, §2
(§4) Group 3: imatinib+compound c group (imatinib [150 mg/kg/day] and compound c [10 mg/kg/day] were administered via gavage)
(§5) 8 days (day 8) after the day on which CML cells (32Dp210-GFP cells) were intravenously inoculated (day 0), administration of the test drugs to the groups was started. The placebo group and the imatinib group were administered the respective test drugs once a day from day 8 to day 14 (7 doses in total). The imatinib+compound c group was administered imatinib once a day from day 8 to day 14 (7 doses in total), and also administered compound c once a day from day 8 to day 14 (7 doses in total).

CML cells [3] = assay: Chronic myelogenous leukemia model mice, imatinib, PAI-1 inhibitor and G-CSF neutralizing antibody (Experimental Example 14); assay type: in vivo
Procedure: In this experiment, whether G-CSF is involved in the effect was examined. Compound a was used as a PAI-1 inhibitor.
as §1
Group 2: IM group (imatinib [150 mg/kg/day] was administered via gavage)
Group 3: IM+anti-G-CSF group (imatinib [150 mg/kg/day] was administered via gavage, G-CSF neutralizing antibody [500 μg/kg/day] was subcutaneously administered)
Group 4: IM+TM group (imatinib [150 mg/kg/day] and compound a [100 mg/kg/day] were administered via gavage)
Group 5: IM+TM+anti-G-CSF group (imatinib [150 mg/kg/day] and compound a [100 mg/kg/day] were administered via gavage, and G-CSF neutralizing antibody [500 μg/kg/day] was subcutaneously administered)
The day on which CML cells were inoculated was set as day 0, and each test drug was administered from day 8 to day 14 (7 doses in total).

CML cells [4] = assay: Chronic myelogenous leukemia model mice, CML cells engrafted onto bone marrow by FACS (Experimental Example 15); assay type: in vivo
Procedure: Chronic myelogenous leukemia model mice prepared in accordance with the procedure of Experimental Example 11 (1) were divided into 3 groups (each group: n=15) and administered respective test drugs.
as §1, §2, §4
as §5, with “cells” for “cells (32Dp210-GFP cells)”, “of” for “of the”
CML cells engrafted onto bone marrow were analyzed by FACS immediately before the administration of a test drug (day 8; “immediately before antitumor agent treatment” in FIG. 19), immediately after the completion of administration of a test drug (day 14; “immediately after antitumor agent treatment” in FIG. 19), and day 28 from the start of administration of a test drug (day 36; “after 28 days” in FIG. 19). […] About 50% leukemia cells were grafted on the bone marrow immediately before administration of a test drug (day 8; “immediately before antitumor agent treatment” in FIG. 19). After the tumor-bearing mice were administered a test drug 7 times (day 14), the proportion of CML cells was analyzed. […] All of the mice in the group administered physiological saline died.

CML cells [5] = assay: Chronic myelogenous leukemia model mice, compound a alone, imatinib, combination (Experimental Example 16); assay type: in vivo; settings: imatinib 150 mg/kg/day alone
Procedure: as §1
Group 2: compound a group (compound a [100 mg/kg/day] was administered via gavage)
Group 3: imatinib group (imatinib [150 mg/kg/day] was administered via gavage)
Group 4: imatinib+compound a group (imatinib [150 mg/kg/day] and compound a [100 mg/kg/day] were administered via gavage)
as §3, with “days after” for “days”, “10)” for “10) after”, “placebo group, the compound a group,” for “placebo group”, “day 16 (7” for “day 14 (5”

CML cells [6] = assay: Chronic myelogenous leukemia model mice, imatinib with compound d or compound e (Experimental Example 17); assay type: in vivo
Procedure: as §1, §2
Group 3: imatinib+compound d group (imatinib [150 mg/kg/day] and compound d [10 mg/kg/day] were administered via gavage)
Group 4: imatinib+compound e group (imatinib [150 mg/kg/day] and compound e [10 mg/kg/day] were administered via gavage)
8 days after (day 8) the day (day 0) on which CML cells were intravenously inoculated, administration of test drugs to the groups was started. The placebo group and the imatinib group were administered the respective test drugs once a day from day 8 to day 14 (7 doses in total). The imatinib+compound d group and imatinib+compound e group were administered imatinib once a day from day 8 to day 14 (7 doses in total), and also administered compound d or e once a day from day 8 to day 14 (7 doses in total).

hematopoietic stem cells [7] = assay: Frequency and absolute number of hematopoietic stem cells after bone-marrow transplantation (Experimental Example 8 (1)); assay type: in vivo, mice; settings: 1 and 3 weeks after bone-marrow transplantation; compared with control group
Procedure: In accordance with the procedure of Experimental Example 7 (1), bone marrow was transplanted, and tPA or compound a was administered in the same manner as in Experimental Example 7. Physiological saline was administered to a control group. 1 and 3 weeks after bone-marrow transplantation, 12 mice of each group were measured for the number of bone-marrow mononucleic cells (BM MNC), the frequency and absolute number of Lin-SLAM cells, and the frequency and absolute number of LSK-CD34 negative cells.

hematopoietic stem cells [8] = assay: Cell cycle (Ki-67, BrdU) and apoptosis (Annexin V) of bone-marrow cells 1 week after bone-marrow transplantation (Experimental Example 9); assay type: in vivo, mice
Procedure: In accordance with Experimental Example 7 (1), bone-marrow transplantation was conducted, and after the transplantation, physiological saline (control group), tPA (tPA-administered group), or compound a (compound a-administered group) was administered.
1 week after bone-marrow transplantation, the bone marrow was collected, and Ki-67 protein, which is a cell division marker, was immunostained with anti-Ki-67-FITC antibody (BD Bioscience) to analyze the cells in the cell-division cycle by FACSCalibur.
Subsequently, the number of Ki-67 positive cells in the cells of LSK fraction was examined to confirm that the proliferation of hematopoietic stem cells is promoted by compound a.
In addition, to more accurately detect the cells that moved to the S phase, 5-bromo-2-deoxyuridine (BrdU)-FITC (BD Pharmingen) was administered to the control group, tPA group, and compound a-administered group 1 week after bone-marrow transplantation, 3 hours before the collection of bone marrow. 6 mice were used for each group.
Because BrdU is a thymine derivative, BrdU, substituting for thymine, is incorporated into genomic DNA or the like during DNA replication. BrdU more specifically reflects the S phase than Ki-67 protein.
1 week after bone-marrow transplantation, bone marrow was collected from the control group, tPA group, and compound a-administered group (6 mice for each group), and Annexin V, which appears specifically in apoptosis, was detected with anti-Annexin V antibody immunostaining.

hematopoietic stem cells [9] = assay: Fibrinolytic pathway activation and bone-marrow regeneration after lethal radiation (9Gy) and bone-marrow transplantation, compound a versus recombinant tPA (Experimental Example 7)
Procedure: Within 4 hours, 1.0×10^6 bone-marrow mononucleic cells (BM MNC) were intravenously inoculated into retro-orbital plexus. Concurrently with transplantation, compound a (dosage 100 mg/kg) or recombinant tPA (dosage 100 mg/kg, Eisai Co., Ltd) were administered as a test compound via oral gavage, and the test compound was orally administered for 5 consecutive days (administered group). As a control test, instead of the test compound, physiological saline (vehicle) used for dissolving compound a was orally administered in the same manner (control group).
Blood was collected 2 and 7 days after bone-marrow transplantation, and the active PAI-1 level (ng/mL), active tissue-type plasminogen activator (active tPA), plasmin level (ng/mL), cKit ligand, and total MMP-9 (Matrix metalloprotein-9) in the plasma were measured.

[10] = tPA group compared with control group, compound a group compared with tPA group

With `Cc1ccc(NC(=O)c2ccc(CN3CCN(C)CC3)cc2)cc1Nc1nccc(-c2cccnc2)n1` [imatinib, reference compound] the “frequency of 32Dp210-GFP cells in bone-marrow mononucleic cells” value [1] was “about 55%”, the “frequency of CML cells (32Dp210-GFP cells) in the spleen” value [1] was “about 76%” and the survival [1] was “all of the mice died by day 40”. For the same compound, the median survival period ([1]; placebo 14 days) was 27 days, the survival [2] was “all of the mice died by day 35” and the median survival period ([2]; placebo 15.5 days) was 23.5 days. For the same compound, the median survival period (CML cells [3]; IM group: imatinib 150 mg/kg/day alone, placebo 15 days) was 22 days, the survival (CML cells [3]; IM group: imatinib alone) was “all of the mice died by day 30” and the survival (CML cells [3]; IM+anti-G-CSF group) was “all of the mice died by day 30”. For the same compound, the median survival period (CML cells [3]; IM+anti-G-CSF group: imatinib 150 mg/kg/day + G-CSF neutralizing antibody 500 μg/kg/day) was 23 days, the “CML (leukemia) cells in the bone marrow” value (CML cells [4]; imatinib 150 mg/kg/day alone, day 8 to day 14, analysed day 36) was 55.5% and the “proportion of CML cells in the bone marrow” value (CML cells [4]; imatinib alone, day 14, after 7 doses, about 50% before treatment) was “marked decrease”. The survival (CML cells [5]) was “all of the mice died by day 40” and the survival (CML cells [6]; imatinib 150 mg/kg/day alone) was “all of the mice died by day 40”.

“tPA: recombinant tPA (tissue-type plasminogen activator), Eisai Co., Ltd” was tested, and the “number of bone-marrow mononucleic cells” value (hematopoietic stem cells [7]) was “slightly larger”, the “proportion of cells that were induced apoptosis (Annexin V)” value (hematopoietic stem cells [8]; compared with control group) was “decrease” and the “cells in the S phase (BrdU incorporated into LSK cells)” value (hematopoietic stem cells [8]; control group 18.1%) was 18.8%. The “Ki-67 positive, cells classified into the LSK fraction taken as 100%” value (hematopoietic stem cells [8]; control group 43.3%) was 50.7%, the “cell count of cells at the S-G2-M phase (Ki-67) in bone-marrow mononucleic cells” value (hematopoietic stem cells [8]; control group 44.2%) was 50.8% and the “cell count of cells at the G0/G1 phase (Ki-67) in bone-marrow mononucleic cells” value (hematopoietic stem cells [8]; control group 55.8%) was 49.2%. For the same compound, the “level of active tPA in plasma” value (hematopoietic stem cells [9]; 2 days after bone-marrow transplantation, among control, tPA and compound a groups) was “highest level”, the “expression of active PAI-1 in the plasma” value (hematopoietic stem cells [9]; compound a or recombinant tPA 100 mg/kg, 5 consecutive days, 2 and 7 days after bone-marrow transplantation) was “lower than that of the control group” and the “survival rate on day 28 from bone-marrow transplantation” value (hematopoietic stem cells [9]; lethal radiation 9Gy, 100 mg/kg, 5 consecutive days, n=15, control group 20%) was 50%. The “platelet count in the peripheral blood” value (hematopoietic stem cells [9]; [10]) was “significantly increased” and the “white blood cell count in the peripheral blood” value (hematopoietic stem cells [9]; [10]) was “significantly increased”.

In the case of `O=C(COCC(=O)Nc1ccc(Cl)cc1C(=O)O)Nc1cccc(-c2ccco2)c1` [Example 61 (compound group 3), 5-chloro-2-{[(2-{[3-(furan-2-yl)phenyl]amino}-2-oxoethoxy)acetyl]amino}benzoic acid], the survival (CML cells [6]; imatinib 150 mg/kg/day + compound d or compound e 10 mg/kg/day via gavage, day 8 to day 14) is reported as “some mice survived even after day 40”.
